Laboratory results as given in ChEMBL document CHEMBL5252612, “A novel selective estrogen receptor degrader induces cell cycle arrest in breast cancer via ERα degradation and the autophagy-lysosome pathway” (Bioorg Med Chem, 2023).
Calls of active or inactive are those of the source. The rule behind the calls is not given here.

How the values were obtained:
[1] = Anticancer activity against ER-alpha positive human LCC2 cells assessed as reduction in cell viability measured after 48 hrs by CCK8 assay; type: functional, cell-based; conditions: lcc2
[2] = tested on: T47D; experiment: Induction of autophagy in human T47D cells assessed as increase in LC3 protein expression by western blot analysis; type: functional, cell-based
[3] = tested on: T47D; experiment: Induction of autophagy in human T47D cells assessed as increase in autophagosome number by measuring LC3 puncta formation by immunofluorescence assay; type: functional, cell-based
[4] = tested on: T47D; experiment: Induction of autophagy in human T47D cells assessed as increase in lysosome number by LysoTracker dye based confocal microscopy; type: functional, cell-based
[5] = tested on: T47D; experiment: Induction of autophagy in human T47D cells assessed as downregulation of MYC protein expression incubated for 24 hrs by western blot analysis; type: functional, cell-based; conditions: dose 1-5 µM
[6] = tested on: MCF7; experiment: Antitumor activity against human MCF7 cells xenografted in BALB/c nude mouse assessed as reduction in tumor volume at 4 mg/kg, ip administered every other day by caliper analysis; type: functional, organism-based

SMILES | IC50 [1] | Activity [2] | Activity [3] | Activity [4] | Activity [5] | Activity [6]
CC/C(=C(\c1ccccc1)c1ccc(OCCN(C)C)cc1)c1ccccc1 [TAMOXIFEN] | Not Active | Active | Active | Active | – | –
CO[C@H]1C[C@@H]2CC[C@@H](C)[C@@](O)(O2)C(=O)C(=O)N2CCCC[C@H]2C(=O)O[C@H]([C@H](C)C[C@@H]2CC[C@@H](O)[C@H](OC)C2)CC(=O)[C@H](C)/C=C(\C)[C@@H](O)[C@@H](OC)C(=O)[C@H](C)C[C@H](C)/C=C/C=C/C=C/1C | – | – | – | – | Dose-Dependent Effect | –
C[C@]12CC[C@@H]3c4ccc(O)cc4C[C@@H](CCCCCCCCC[S+]([O-])CCCC(F)(F)C(F)(F)F)[C@H]3[C@@H]1CC[C@@H]2O (some centres undefined) | – | Active | Active | Active | – | Active
